Experimental data as given in patent publication US20040034078A1 (Agouron Pharmaceuticals, Inc., priority 2002, published 2004).

Assays:
[1] = molecular target: purified PARP protein (Homo sapiens, UniProt P09874); test: PARP Enzyme Inhibition Assay; format: biochemical; conditions: [32P]NAD+ incorporation, 500 μM NAD+, 25° C.; competitive inhibition fit; read-out: Inhibition Constant Ki
Procedure: The PARP enzyme-inhibiting activities of test compounds were assayed as described by Simonin et al. (J. Biol. Chem. (1993), 268:8529-8535) and Marsischky et al. (J. Biol. Chem. (1995), 270:3247-3254) with minor modifications as follows. Samples (50 μL) containing 20 nM purified PARP protein, 10 μg/mL DNAse I-activated calf thymus DNA (sigma), 500 μM NAD^+, 0.5 μCi [^32P]NAD^+, 2% DMSO, and various concentrations of test compounds were incubated in sample buffer (50 mM Tris pH 8.0, 10 mM MgCl2, 1 mM tris(carboxyethyl)phosphine HCl) at 25° C. for 5 minutes. Under these conditions, the reaction rate was linear for times up to 10 minutes. The reaction was stopped by the addition of an equal volume of ice-cold 40% trichloroacetic acid to the samples, which were then incubated on ice for 15 minutes. The samples were then transferred to a Bio-Dot microfiltration apparatus (BioRad), filtered through Whatman GF/C glass-fiber filter paper, washed 3 times with 150 μL of wash buffer (5% trichloroacetic acid, 1% inorganic pyrophosphate), and dried. [^32P]ADP-Ribose incorporation into the acid-insoluble material was quantitated using a PhosphorImager (Molecular Dynamics) and ImageQuant software. Inhibition constants (Ki) were calculated by non-linear regression analyses using the velocity equation for competitive inhibition (Segel, Enzyme Kinetics: Behavior and Analysis of Rapid Equilibrium and Steady-State Enzyme Systems, John Wiley & Sons, Inc., New York (1975), 100-125). In the case of tight-binding inhibitors, 5 nM enzyme was used and the reaction was incubated at 25° C. for 25 minutes. Ki values for tight-binding inhibitors were calculated using the equation described by Sculley et al. (Biochim. Biophys. Acta (11986), 874:44-53).

[2] = test system: A549 cells; test: Cytotoxicity Potentiation Assay; format: cell-based; conditions: ratio of IC50 of topotecan alone to IC50 of topotecan in combination with test compound
Procedure: A549 cells (ATCC, Rockville, Md.) were seeded into 96-well cell culture plates (Falcon brand, Fisher Scientific, Pittsburgh, Pa.) 16 to 24 hours before experimental manipulation. Cells were then treated with a test compound (or a combination of test compounds where indicated) for either 3 days or 5 days. At the end of treatments, relative cell number was determined either by MTT assay or SRB assay. For the MTT assay, 0.2 μg/μl of MTT (3-(4,5-dimethylthiazol-2-yl)-2,5-diphenyltetrazolium bromide, Sigma Chemical Co., St. Louis, Mo.) was added to each well of a plate, and the plate was incubated in a cell-culture incubator for 4 hours. Metabolized MTT in each well was solubilized in 150 μl of DMSO (Sigma Chemical Co.) with shaking and quantified with a Wallac 1420 Victor plate reader (EG & G Wallac, Gaithersburg, Md.) at 540 nm. For the SRB assay, cells were fixed with 10% trichloroacetic acid (Sigma Chemical Co) for an hour at 4° C. After extensively washing, fixed cells were stained for 30 minutes with 0.4% sulforhodamine B (SRB, Sigma Chemical Co.) in 1% acetic acid (Sigma Chemical Co). Unbound SRB was washed away with 1% acetic acid. Then the cultures were air-dried, and bound dye was solubilized with 10 mM unbuffered Tris base (Sigma Chemical Co) with shaking. The bound dye was measured photometrically with the Wallac Victor plate reader at 515 nm. The ratio of the OD (optical density) value of a compound-treated culture to the OD value of a mock-treated culture, expressed in percentage, was used to quantify the cytotoxicity of a compound. The concentration at which a compound causes 50% cytotoxicity is referred to as IC50. To quantify the potentiation of the cytotoxicity of topotecan or temozolomide by test compounds, a dimensionless parameter PF50 is used and is defined as the ratio of the IC50 Of topotecan or temozolomide alone to the IC50 of topotecan or temozolomide in combination with a test compound. For the compounds of the invention, PF50 values were determined by testing with topotecan.

Sequence of purified PARP protein (P09874 whole entry): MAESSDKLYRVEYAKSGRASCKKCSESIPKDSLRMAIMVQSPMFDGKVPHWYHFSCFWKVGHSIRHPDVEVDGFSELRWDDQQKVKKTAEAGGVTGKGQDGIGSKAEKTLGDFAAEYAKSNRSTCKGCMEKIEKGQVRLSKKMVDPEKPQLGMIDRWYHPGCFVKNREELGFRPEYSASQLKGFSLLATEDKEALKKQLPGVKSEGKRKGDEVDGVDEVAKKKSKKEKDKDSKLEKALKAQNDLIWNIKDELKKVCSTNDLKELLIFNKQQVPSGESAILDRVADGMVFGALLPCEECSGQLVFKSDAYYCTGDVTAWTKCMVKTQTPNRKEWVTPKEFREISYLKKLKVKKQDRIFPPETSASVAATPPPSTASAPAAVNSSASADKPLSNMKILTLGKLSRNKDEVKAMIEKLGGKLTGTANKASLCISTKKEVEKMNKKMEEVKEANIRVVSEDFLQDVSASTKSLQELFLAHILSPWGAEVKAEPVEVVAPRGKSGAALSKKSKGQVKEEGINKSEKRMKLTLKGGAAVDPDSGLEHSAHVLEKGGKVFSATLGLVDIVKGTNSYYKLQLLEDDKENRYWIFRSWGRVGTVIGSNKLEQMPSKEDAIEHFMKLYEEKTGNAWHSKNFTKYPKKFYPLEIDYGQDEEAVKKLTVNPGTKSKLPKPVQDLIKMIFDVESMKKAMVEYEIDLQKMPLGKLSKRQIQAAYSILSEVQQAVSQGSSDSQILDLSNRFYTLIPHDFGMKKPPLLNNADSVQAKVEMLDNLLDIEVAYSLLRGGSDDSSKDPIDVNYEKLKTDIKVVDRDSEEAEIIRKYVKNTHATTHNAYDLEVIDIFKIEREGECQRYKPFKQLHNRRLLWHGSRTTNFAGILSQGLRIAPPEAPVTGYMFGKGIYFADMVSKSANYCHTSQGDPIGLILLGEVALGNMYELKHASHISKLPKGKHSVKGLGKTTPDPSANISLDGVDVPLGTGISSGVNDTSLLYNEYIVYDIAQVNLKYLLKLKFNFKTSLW

| SMILES | Ki [1] | Cytotoxicity Potentiation PF50 [2] |
| --- | --- | --- |
| CCCCNCCSCc1nc2c(C(N)=O)cccc2[nH]1 [Compound 1, 2-(2-Butylamino-ethylsulfanylmethyl)-1H-benzimidazole-4-carboxylic Acid Amide] | 29 ± 7 nM | 1.2 |
| NC(=O)c1cccc2[nH]c(CSc3ccccc3C3=NCCCN3)nc12 [Compound 7] | 6.9 ± 0.4 nM | 2.2 |
| CC(=O)Nc1ccc(SCc2nc3c(C(N)=O)cccc3[nH]2)cc1 [Compound 9, 2-(4-Acetylamino-phenylsulfanylmethyl)-1H-benzimidazole-4-carboxylic Acid Amide] | 10 ± 3 nM | 1.1 |
| CC(=O)c1ccc(N2CCN(Cc3nc4c(C(N)=O)cccc4[nH]3)CC2)cc1 [Compound 17, 2-[4-(4-Acetyl-phenyl)-piperazin-1-vimethyl]-1H-benzimidazole-4-carboxylic Acid Amide] | 19 ± 2 nM | 1.2 |
| CN(CCc1ccccc1)Cc1nc2c(C(N)=O)cccc2[nH]1 [Compound 18, 2-[(Methyl-phenethyl-amino)-methyl]-1H-benzimidazole-4-carboxylic Acid Amide] | 8.6 ± 0.1 nM | 1.4 |
| NC(=O)c1cccc2[nH]c(CN3CCc4ccccc4C3)nc12 [Compound 19, 2-(3,4-Dihydro-1H-isoqluinolin-2-ylmethyl)-1H-benzimidazole-4-carboxylic Acid Amide] | 22 ± 2 nM | 1.1 |
| NC(=O)c1cccc2[nH]c(CS(=O)(=O)c3ccc([N+](=O)[O-])cc3)nc12 [Compound 27, 2-(4-Nitro-benzenesulfonylmethyl)-1H-benzimidazole-4-carboxylic Acid Amide] | 2.5 ± 0.2 nM | 1.3 |
| NC(=O)c1cccc2[nH]c(C[S+]([O-])c3ccc([N+](=O)[O-])cc3)nc12 (stereo not shown) [Compound 28, 2-(4-Nitro-benzenesulfinylmethyl)-1H-benzimidazole-4-carboxylic Acid Amide] | 3.9 ± 0.6 nM | 1.4 |
| NC(=O)c1cccc2[nH]c(CS(=O)(=O)c3ccc(O)cc3)nc12 [Compound 29, 2-(4-Hydroxy-benzenesulfonylmethyl)-1H-benzimidazole-4-carboxylic Acid Amide] | 24 nM | 1.2 |
| CCCCNCCS(=O)(=O)Cc1nc2c(C(N)=O)cccc2[nH]1 [Compound 30, 2-(2-Butylamino-ethanesulfonylmethyl)-1H-benzimidazole-4-carboxylic Acid Amide] | 26 nM | 1.1 |
| CN(CCc1ccccc1)c1nc2c(C(N)=O)cccc2[nH]1 [Compound 54, 2-(Methyl-phenethyl-amino)-1H-benzoimidazole-4-carboxylic Acid Amide] | 35 ± 6 nM |  |
| CNc1nc2c(C(N)=O)cccc2[nH]1 [Compound 55, 2-Methylamino-1H-benzoimidazole-4-carboxylic Acid Amide] | 85 ± 8 nM |  |
| NC(=O)c1cccc2[nH]c(N)nc12 [Compound 56, 2-Amino-1H-benzoimidazole-4-carboxylic Acid Amide] | 319 ± 36 nM |  |
| CN(C)c1nc2c(C(N)=O)cccc2[nH]1 [Compound 57, 2-Dimethylamino-1H-benzoimidazole-4-carboxylic Acid Amide] | 44 ± 4 nM |  |
| NC(=O)c1cccc2[nH]c(NCc3ccccc3)nc12 [Compound 58, 2-Benzylamino-1H-benzoimidazole-4-carboxylic Acid Amide] | 66 ± 8 nM |  |
| CCN(CC)CCNc1nc2c(C(N)=O)cccc2[nH]1 [Compound 59, 2-(2-Diethylamino-ethylamino)-1H-benzoimidazole-4-carboxylic Acid Amide] | 23 ± 4 nM |  |
| NC(=O)c1cccc2[nH]c(NCCc3cccs3)nc12 [Compound 60, 2-(2-Thiophen-2-yl-ethylamino)-1H-benzoimidazole-4-carboxylic Acid Amide] | 81 ± 10 nM |  |
| NC(=O)c1cccc2[nH]c(NCCc3cnc[nH]3)nc12 [Compound 61, 2-[2-(3H-Imidazol-4-yl)-ethylamino]-1H-benzoimidazole-4-carboxylic Acid Amide] | 12 ± 1 nM |  |
